Laboratory results from patent publication EP1028734B1, “USE OF SPECIFIC STEADY-STATE R-TYPE CALCIUM CHANNEL BLOCKERS” (priority 1997, dated 1999).

Columns and labels:
[1] = writhe responses in mice (acetic acid, acetylcholine, kaolin); assay type: in vivo; settings: 2.7 to 27 mol/kg, i.p.
Text: The antinociceptive actions of compound MV 8612 and MV 8608 were investigated in different models of nociception in mice as reported previously (Vaz et al., 1996, J. Pharmacol. Exp. Ther. 278:304-312).

mouse paw oedema = assay type: in vivo, mice; settings: i.p.
Description: (§1) In this experiment (N =5 to 6 animals per group), the anti-oedemagenic action of compounds MV 8608 and MV 8612 against bradykinin and several mediators which are reported to be involved in the inflammatory processes, was evaluated. The procedures used to perform these experiments have been reported elsewhere (Neves et al., 1993, Eur. J. Pharmacol. 243:213-219; Campos et al., 1995, Br. J. Pharmacol. 114:1005-1013; Campos et al., 1996, Br. J. Pharmacol. 117:793-798; Eur. J. Pharmacol. 316:227-286). […] As reported previously, in rats treated […] prior to a systemic injection of LPS, both B1 and B2 kinin selective agonists caused marked oedema formation (Figures 37C and D (Campos et al., 1996, supra)).
When tested in mice, MV 8612 (40 to 160 nmol/paw) inhibited bradykinin and carrageenan-induced paw oedema in mice in a dose-dependent manner (Figures 46A and B).

[2] = bradykinin-induced skin vascular permeability in rats; assay type: in vivo, rat
Description: (§2) To assess further the anti-inflammatory action of MV 8612 and MV 8608, their effects against the inflammatory responses caused by several mediators of inflammation in a murine model of pleurisy were tested (Saleh et al., 1996, Br. J. Pharmacol 118:811-819). In addition, both compounds were tested against the increase of vascular permeability caused by bradykinin in the rat skin (Neves et al., 1993b, Phytotherapy Research. 7:356-362).

murine model of pleurisy = assay type: in vivo, mice
Description: as §2

rat uterus = settings: Calixto et al., 1987; cited from earlier work
L-type Ca^2+ channel = experiment: whole-cell voltage clamp, L-type ICa of heart cells of chick embryos; assay type: cell-based
Description: (§3) Single cells of different types in culture were prepared from biopsies of human, chick and rabbit. Known and accepted methods for the isolation of fast Na^+ current, T, L and R-type Ca^2+ channels as well as delayed outward K^+ current were used (Bkaily 1994, supra).
(§4) The compounds to be tested are added to the appropriate extracellular solution after recording a stable ionic current or normal steady-state level of [Ca]n and [Ca]n The effect of different concentrations of compounds are tested on the different type of current and [Ca]i of the different cell types. The effect of each concentration of the compounds in function of the time of exposure are then determined. Once the steady-state effect is reached, the second concentration is added, etc.
In another series of experiments (n=5), the effect of different concentrations of MV8608 (10^-11 to 10^-6M) were tested on the L-type ICa of heart cells of chick embryos using the whole-cell and experimental conditions and protocols described elsewhere by the inventors (Bkaily G. et al., 1993, supra). As for the T-type ICa' the L-type ICa was not affected by 10^-11 to 10^-10M MV8608.
In another series of experiments (n=4), we tested the effect of MV8612 on the L-type Ca^2+ current (ICa) in chick embryonic heart cells using the whole-cell voltage clamp technique referred to above. Superfusion with 10^-9M of MV8612 decreased ICa amplitude by 10% and increasing the concentration of the compound up to 10^-8M further decreased the current amplitude by 25%. Higher concentration of MV8612 (10^-7M) decreased the ICa amplitude by 62%.

human lymphocyte = human lymphocyte proliferation in vitro; assay type: cell-based; settings: MV 8612, MV 8608 14.5 to 116 M
Description: In a separate series of experiments, compounds MV 8612 and MV 8608 were tested to analyze whether they interfered with human lymphocyte proliferation "in vitro". These experiments were carried out as reported previously (Moraes et al., 1996, Eur. J. Pharmacol. 312:333-339).

R-type Ca^2+ channel = experiment: confocal Fluo-3 3-dimension measurement of cytosolic [Ca]c and nuclear [Ca]n; assay type: cell-based, chick, human
rat paw oedema = assay type: in vivo, rats
Description: as §1

[3] = test system: TTX-sensitive fast Na^+ current; experiment: whole-cell voltage clamp, TTX-sensitive fast Na+ current in single heart cell (MV8608); assay type: cell-based; settings: 10^-11M to 10^-7M, n=5
Description: as §3, §4
In one series of experiments (n=5), the effect of different concentrations of MV8608 (10^-11M to 10^-7M) on the TTX-sensitive fast Na^+ current were tested using the whole-cell voltage clamp technique and experimental conditions reported elsewhere (Bkaily et al., 1988, supra; 1993, supra).

[4] = MV 8612 30 and 60, MV 8608 30, i.p.
[5] = 100 nmol/paw, rats treated 30 days prior (text LPS, Figure 37 BCG)
[6] = 10 and 100 nmol/paw co-injected
[7] = 10 and 100 nmol/paw, dose-dependant

(15R, 16R, 20S)-14, 16:15,20:16,21-triepoxi-15,16-seco 14β, 17α-pregn-5-ene-3β, 15-diol [MV8608]
antinociceptive action in the same model of pain (writhing) [1]: only partial or even no antinociceptive action
paw oedema induced by histamine (mouse paw oedema): dose-related inhibition
paw oedema induced by serotonin (mouse paw oedema): dose-related inhibition
bradykinin-induced paw oedema (mouse paw oedema; 30 min prior): unaffected
increase of vascular permeability caused by bradykinin in the rat skin [2]: antagonised in a dose-related manner
mononuclear cells influx, intrapleural PAF (murine model of pleurisy; 30, i.p.): antagonised significantly
plasma extravasation, intrapleural PAF (murine model of pleurisy; 30, i.p.): antagonised significantly
neutrophils cells, intrapleural carrageenan (murine model of pleurisy; [4]): inhibited significantly
total cells, intrapleural carrageenan (murine model of pleurisy; [4]): inhibited significantly
contraction of rat uterus induced by BK (rat uterus): selective in its ability to inhibit
ICa amplitude (L-type), further change (L-type Ca^2+ channel; 5 x 10^-7M): a further slight increase
decrease of ICa amplitude (L-type) (L-type Ca^2+ channel; 10^-9M): 10%
L-type ICa (L-type Ca^2+ channel; 10^-11 to 10^-10M): not affected
human lymphocyte proliferation (human lymphocyte): graded inhibition
sustained increase of [Ca]c and [Ca]n induced with high concentration of PAF (10^-7M) (R-type Ca^2+ channel; 10^-6M of compound, back to the control level, Figure 29B): significantly decrease
cytosolic and nuclear Ca^2+ sustained overload induced by 30mM KCl and PAF (R-type Ca^2+ channel; 10^-7M of compound, nifedipine present): blocked both the cytosolic and nuclear Ca^2+ sustained overload
prevention of stimulation of the R-type Ca^2+ channel by sustained depolarization (R-type Ca^2+ channel; 10^-8 M and 10^-7 M, dose-dependent): prevented
prevention of high PAF (10^-7 M) action (R-type Ca^2+ channel; 10^-9M of compound): succeeded in preventing
sustained depolarization induced sustained increase of [Ca]c and [Ca]n (R-type Ca^2+ channel; heart cells, Figure 29 panel A): blocked completely
oedema induced by prostaglandin E2 (PGE2) (rat paw oedema; 100 nmol/paw): partially inhibited
oedema induced by substance P (rat paw oedema; 100 nmol/paw): unaffected
paw oedema induced by PAF (rat paw oedema; 100 nmol/paw): consistently inhibited
bradykinin-induced rat paw oedema (rat paw oedema; [5]): significantly inhibited
des-Arg^9-BK-induced rat paw oedema (rat paw oedema; [5]): significantly inhibited
carrageenan-induced paw oedema (rat paw oedema; 10 and 100 nmol/paw): significantly prevented
dextran-induced paw oedema (rat paw oedema; [6]): significantly prevented
histamine-induced paw oedema (rat paw oedema; [6]): significantly prevented
serotonin-induced paw oedema (rat paw oedema; [6]): significantly prevented
paw oedema induced by des-Arg^9-bradykinin (rat paw oedema; 10 and 100 nmol/paw co-injected, animals treated with LPS): dose-related inhibition
oedema formation induced by subplantar injection of ovalbumin (rat paw oedema; 10 and 100 nmol/paw, animals actively sensitised): inhibited significantly
bradykinin-induced hindpaw oedema (rat paw oedema; 10 and 100 nmol/paw, animals treated with LPS): no significant effect
potentiation of paw oedema by low dose of des-Arg^9-BK plus PAF (rat paw oedema; [7]): prevented the potentiation
potentiation of paw oedema by low dose of des-Arg^9-BK with PGE2 (rat paw oedema; [7]): prevented the potentiation
effect on the TTX-sensitive fast Na^+ current [3]: no effect
